Measured values as given in US10405547B2, “Substituted cyclic amides as herbicides” (FMC Corporation, priority 2015, dated 2019).

Tests used:
Assay type in all cases: in vivo
[1] = system: ragweed (common ragweed, Ambrosia elatior); assay: Test A postemergence, ragweed; details: visual injury, 0 to 100 scale (0 no effect, 100 complete control), approximately 10 days
Outline: (§1)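 Greenhouse test: compounds in solvent with surfactant sprayed onto loam–sand soil after planting (preemergence) or onto plants 2-10 cm at the one- to two-leaf stage (postemergence). Injury visually rated versus untreated controls after about 10 days on a 0-100 scale (100 = complete control).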

corn (Zea mays) = assay: Test A postemergence, corn; details: visual injury, 0 to 100 scale (0 no effect, 100 complete control), approximately 10 days
Outline: as §1

kochia (Kochia scoparia) [2] = assay: Test A preemergence, kochia; details: 0 to 100 scale (0 no effect, 100 complete control)
Outline: as §1

[3] = system: pigweed (Amaranthus retroflexus); assay: Test A postemergence, pigweed; details: visual injury, 0 to 100 scale (0 no effect, 100 complete control), approximately 10 days
Outline: as §1

[4] = system: wheat (Triticum aestivum); assay: Test A postemergence, wheat; details: visual injury, 0 to 100 scale (0 no effect, 100 complete control), approximately 10 days
Outline: as §1

[5] = system: foxtail, giant (Setaria faberii); assay: Test A preemergence, giant foxtail; details: 0 to 100 scale (0 no effect, 100 complete control)
Outline: as §1

[6] = system: ragweed (common ragweed, Ambrosia elatior); assay: Test A preemergence, ragweed; details: 0 to 100 scale (0 no effect, 100 complete control)
Outline: as §1

rice (Oryza sativa) = assay: Test B flooded paddy test, rice; details: 250 g ai/ha, applied to paddy water, visual rating after 13 to 15 days, scale 0 (no effect) to 100 (complete control)
Excerpt: (§2) At time of treatment, test pots were flooded to 3 cm above the soil surface, treated by application of test compounds directly to the paddy water, and then maintained at that water depth for the duration of the test. Treated plants and controls were maintained in a greenhouse for 13 to 15 days, after which time all species were compared to controls and visually evaluated. […] A dash (-) response means no test result.

[7] = system: pigweed (Amaranthus retroflexus); assay: Test A preemergence, pigweed; details: 0 to 100 scale (0 no effect, 100 complete control)
Outline: as §1

[8] = system: galium (catchweed bedstraw, Galium aparine); assay: Test A postemergence, galium; details: visual injury, 0 to 100 scale (0 no effect, 100 complete control), approximately 10 days
Outline: as §1

[9] = system: barnyardgrass (Echinochloa crus-galli); assay: Test A preemergence, barnyardgrass; details: 0 to 100 scale (0 no effect, 100 complete control)
Outline: as §1

[10] = system: sedge, umbrella (small-flower umbrella sedge, Cyperus difformis); assay: Test B flooded paddy test, umbrella sedge; details: 250 g ai/ha, applied to paddy water, visual rating after 13 to 15 days, scale 0 (no effect) to 100 (complete control)
Excerpt: as §2

kochia (Kochia scoparia) [11] = assay: Test A postemergence, kochia; details: visual injury, 0 to 100 scale (0 no effect, 100 complete control), approximately 10 days
Outline: as §1

[12] = system: barnyardgrass (Echinochloa crus-galli); assay: Test B flooded paddy test, barnyardgrass; details: 250 g ai/ha, applied to paddy water, visual rating after 13 to 15 days, scale 0 (no effect) to 100 (complete control)
Excerpt: as §2

[13] = system: barnyardgrass (Echinochloa crus-galli); assay: Test A postemergence, barnyardgrass; details: visual injury, 0 to 100 scale (0 no effect, 100 complete control), approximately 10 days
Outline: as §1

[14] = system: ducksalad (Heteranthera limosa); assay: Test B flooded paddy test, ducksalad; details: 250 g ai/ha, applied to paddy water, visual rating after 13 to 15 days, scale 0 (no effect) to 100 (complete control)
Excerpt: as §2

[15] = system: blackgrass (Alopecurus myosuroides); assay: Test A postemergence, blackgrass; details: visual injury, 0 to 100 scale (0 no effect, 100 complete control), approximately 10 days
Outline: as §1

[16] = system: ryegrass, Italian (Lolium multiflorum); assay: Test A preemergence, Italian ryegrass; details: 0 to 100 scale (0 no effect, 100 complete control)
Outline: as §1

[17] = system: foxtail, giant (Setaria faberii); assay: Test A postemergence, giant foxtail; details: visual injury, 0 to 100 scale (0 no effect, 100 complete control), approximately 10 days
Outline: as §1

[18] = system: ryegrass, Italian (Lolium multiflorum); assay: Test A postemergence, Italian ryegrass; details: visual injury, 0 to 100 scale (0 no effect, 100 complete control), approximately 10 days
Outline: as §1

Row | Structure (SMILES) | Plant response rating, Ragweed ([1]; 125 g ai/ha) | Plant response rating, Ragweed ([1]; 500 g ai/ha) | Plant response rating, Corn (corn (Zea mays); 125 g ai/ha) | Plant response rating, Corn (corn (Zea mays); 500 g ai/ha) | Plant response rating, Kochia (kochia (Kochia scoparia) [2]; 125 g ai/ha) | Plant response rating, Kochia (kochia (Kochia scoparia) [2]; 500 g ai/ha) | Plant response rating, Pigweed ([3]; 125 g ai/ha) | Plant response rating, Pigweed ([3]; 500 g ai/ha) | Plant response rating, Wheat ([4]; 125 g ai/ha) | Plant response rating, Wheat ([4]; 500 g ai/ha) | Plant response rating, Foxtail, Giant ([5]; 125 g ai/ha) | Plant response rating, Foxtail, Giant ([5]; 500 g ai/ha) | Plant response rating, Ragweed ([6]; 125 g ai/ha) | Plant response rating, Ragweed ([6]; 500 g ai/ha) | Plant response rating, Rice (Flood) (rice (Oryza sativa)) | Plant response rating, Pigweed ([7]; 125 g ai/ha) | Plant response rating, Pigweed ([7]; 500 g ai/ha) | Plant response rating, Galium ([8]; 125 g ai/ha) | Plant response rating, Galium ([8]; 500 g ai/ha) | Plant response rating, Barnyardgrass ([9]; 125 g ai/ha) | other results
1 | CC1(COc2cccc(C3CNC(=O)C3C(=O)Nc3ccccc3F)c2)COC1 (stereo not drawn) [Compound 14] | 0 | 0 | 0 | 0 | 0 | 0 | 0 | 0 | 0 | 0 | 30 | 90 | 0 | 0 | 0 | 0 | 0 | 0 | 0 | 10 | Plant response rating, Barnyardgrass ([9]; 500 g ai/ha): 80; Plant response rating, Sedge, Umbrella (Flood) [10]: 20; Plant response rating, Kochia (kochia (Kochia scoparia) [11]; 125 g ai/ha): 0; Plant response rating, Kochia (kochia (Kochia scoparia) [11]; 500 g ai/ha): 0; Plant response rating, Barnyardgrass (Flood) [12]: 0; Plant response rating, Barnyardgrass ([13]; 125 g ai/ha): 10; Plant response rating, Barnyardgrass ([13]; 500 g ai/ha): 60; Plant response rating, Ducksalad (Flood) [14]: 70; Plant response rating, Blackgrass ([15]; 125 g ai/ha): 0; Plant response rating, Blackgrass ([15]; 500 g ai/ha): 0; Plant response rating, Ryegrass, Italian ([16]; 125 g ai/ha): 0; Plant response rating, Ryegrass, Italian ([16]; 500 g ai/ha): 0; Plant response rating, Foxtail, Giant ([17]; 125 g ai/ha): 10; Plant response rating, Foxtail, Giant ([17]; 500 g ai/ha): 70; Plant response rating, Ryegrass, Italian ([18]; 125 g ai/ha): 0; Plant response rating, Ryegrass, Italian ([18]; 500 g ai/ha): 0
2 | O=C1NCC(c2cccc(OCc3ccco3)c2)C1C(=O)Nc1cccc(F)c1F (stereo not drawn) [Compound 9] | 0 | 0 | 0 | 20 | 0 | 0 | 0 | 0 | 0 | 0 | 10 | 70 | 0 | 0 | 0 | 0 | 0 | 0 | 0 | 10 | Plant response rating, Barnyardgrass ([9]; 500 g ai/ha): 70; Plant response rating, Sedge, Umbrella (Flood) [10]: 30; Plant response rating, Kochia (kochia (Kochia scoparia) [11]; 125 g ai/ha): 0; Plant response rating, Kochia (kochia (Kochia scoparia) [11]; 500 g ai/ha): 0; Plant response rating, Barnyardgrass (Flood) [12]: 0; Plant response rating, Barnyardgrass ([13]; 125 g ai/ha): 30; Plant response rating, Barnyardgrass ([13]; 500 g ai/ha): 60; Plant response rating, Ducksalad (Flood) [14]: 30; Plant response rating, Blackgrass ([15]; 125 g ai/ha): 0; Plant response rating, Blackgrass ([15]; 500 g ai/ha): 0; Plant response rating, Ryegrass, Italian ([16]; 125 g ai/ha): 0; Plant response rating, Ryegrass, Italian ([16]; 500 g ai/ha): 0; Plant response rating, Foxtail, Giant ([17]; 125 g ai/ha): 0; Plant response rating, Foxtail, Giant ([17]; 500 g ai/ha): 50; Plant response rating, Ryegrass, Italian ([18]; 125 g ai/ha): 0; Plant response rating, Ryegrass, Italian ([18]; 500 g ai/ha): 0
3 | O=C1NCC(c2cccc(OCc3ccco3)c2)C1C(=O)Nc1ccccc1F (stereo not drawn) [Compound 10] | 0 | 0 | 0 | 0 | 0 | 0 | 0 | 0 | 0 | 0 | 0 | 0 | 0 | 0 | 0 | 0 | 0 | 0 | 0 | 0 | Plant response rating, Barnyardgrass ([9]; 500 g ai/ha): 0; Plant response rating, Sedge, Umbrella (Flood) [10]: 40; Plant response rating, Kochia (kochia (Kochia scoparia) [11]; 125 g ai/ha): 0; Plant response rating, Kochia (kochia (Kochia scoparia) [11]; 500 g ai/ha): 0; Plant response rating, Barnyardgrass (Flood) [12]: 0; Plant response rating, Barnyardgrass ([13]; 125 g ai/ha): 10; Plant response rating, Barnyardgrass ([13]; 500 g ai/ha): 60; Plant response rating, Ducksalad (Flood) [14]: 60; Plant response rating, Blackgrass ([15]; 125 g ai/ha): 0; Plant response rating, Blackgrass ([15]; 500 g ai/ha): 0; Plant response rating, Ryegrass, Italian ([16]; 125 g ai/ha): 0; Plant response rating, Ryegrass, Italian ([16]; 500 g ai/ha): 0; Plant response rating, Foxtail, Giant ([17]; 125 g ai/ha): 0; Plant response rating, Foxtail, Giant ([17]; 500 g ai/ha): 30; Plant response rating, Ryegrass, Italian ([18]; 125 g ai/ha): 0; Plant response rating, Ryegrass, Italian ([18]; 500 g ai/ha): 0
